Assays:
Individuals = experiment: Treatment of inflammatory arthritis (Example 26); format: in vivo, human; settings: oral, 6 months
Text: Individuals with rheumatoid arthritis, psoriatic arthritis and systemic lupus erythematosis suffer from recurrent bouts of inflammatory arthritis. They are usually on treatments such as non-steroidal agents such as cyclooxygenase inhibitors, anti-TNFα treatments and other types of immunotherapy. In addition to these treatments they will also receive an acceptable dose of a composition comprising a compound of the present invention in an acceptable carrier orally chronically for durations in excess of 6 months. In one study, 3,4-methylenedioxy-6-nitrophenyl acetate (INV 75) is administered to these individuals. The patients undergo an assessment of joint pains and inflammatory markers such as C-reactive protein (CRP) and erythrocyte sedimentation rate.

Acetyl-CoA Oxidase (ACO) = experiment: ACO mRNA (PPARα regulated gene) by RT-PCR in HepG2 cells; format: cell-based, human; settings: HepG2, dose dependent and time dependent
Procedure: ACO is a PPAR-α regulated gene. HepG2 cells were stimulated by INV 75 (100 μM) for the indicated time, the mRNA expression level of ACO was analyzed by real-time RT-PCR. n=3. *, p<0.05 vs 0.
Cells were stimulated with INV-75 for 4 hours, and mRNA expression level of acetyl co-enzyme A oxidase (ACO) analyzed by real-time RT-PCR. n=3. *, p<0.05 vs −8.5.
We used a reporter gene assay in HepG2 cells to screen for agonists of the peroxisome proliferator-activated receptors. Peroxisome proliferator-activated receptors (PPARs) and other members of the nuclear hormone receptor family are important drug targets for the treatment of metabolic diseases. PPARs play crucial roles in lipid and glucose metabolism, respectively. Therefore, screening methods that help to rapidly identify activators of these receptors should be of considerable value. INV-75 activated a classic PPARα gene, Acetyl-CoA Oxidase (ACO) in a dose dependent and time dependent fashion (FIG. 6A). The time course experiment was performed in presence of INV-75 up to 15 hours. […] We next tested the specificity of INV-75 for PPARα by performing experiments in HepG2 cells transfected with yeast GAL4-PPARα-LBD plasmid+UAS-Luciferase; GAL4-PPARδ-LBD plasmid+UAS-Luciferase and GAL4-PPARα-LBD plasmid+UAS-Luciferase. […]

[1] = test system: thoracic aorta of New Zealand White rabbits; experiment: Myograph experiments on thoracic aortic rings of NZW rabbits; format: in vivo, rabbit
Procedure: Animal Model: 15 male New Zealand White rabbits (Charles River, Mass.) were fed with high fat diet (HFD) (Harlan Teklad rabbit diet with 0.5% cholesterol, TD 87251). After 4 weeks of high fat diet, rabbits were randomized into three different treatment groups, normal control (n=5), lipoic acid (100 mg/kg/day) (n=5), INV 70-65 (100 mg/kg/day) (n=5). These drugs were administered to the animals via their chow by mixing the drugs with the high fat diet. A fixed amount of chow and drugs admixed in the chow were fed to all animals every day after carefully calculating food intake in each rabbit. Drugs were dissolved in 100% ethanol and sprayed onto the diet and kept under vacuum to let ethanol evaporate overnight. Two (2) weeks after drug or control admixed HFD, all rabbits underwent aortic balloon denudation surgeries followed by 12 weeks of continued administration of drug or controls admixed with HFD. FIG. 29 provides an outline of the experimental design.
Rabbits were euthanized by injection of lethal doses of pentobarbital. The thoracic aortas were collected for the myograph studies. Two (2) mm thoracic aortic rings were suspended in individual organ chambers filled with physiological salt solution buffer (sodium chloride, 130 mEq/L; potassium chloride, 4.7 mEq/L; calcium dichloride, 1.6 mEq/L; magnesium sulfate, 1.17 mEq/L; potassium diphosphate, 1.18 mEq/L; sodium bicarbonate, 14.9 mEq/L; EDTA, 0.026 mEq/L; and glucose, 99.1 mg/dL [5.5 mmol/L]; pH, 7.4), aerated continuously with 5% carbon dioxide in oxygen at 37° C. Vessels were allowed to equilibrate for at least 1 hour at a resting tension of 30 mN before being subjected to graded doses of agonists. The vasoconstrictor agonist phenylephrine (PE) was used and responses were expressed as a percentage of the peak response to 120 mEq/L of potassium chloride. The vessels subjected to PE were washed thoroughly and allowed to equilibrate for 1 hour before beginning experiments with acetylcholine or sodium nitroprusside (SNP). […] Results for the vasodilators were expressed as a percentage of pre-contraction by PE (0.1 μM).

Patient = experiment: Treatment of a patient with chronic stable angina (Example 20); format: in vivo, human; settings: oral, 1.0 to 100 mg/kg, two weeks
Procedure: A person with a prior history of a heart attack (myocardial infarction) 10 years ago presents for evaluation. They are complaining of anginal chest pains that are relived with one sub-lingual nitroglycerin and has had these pains chronically. The patient is administered a composition comprising an effective amount of oral 3,4-Methylenedioxy 6-nitro phenyl lipoate (INV-7465) (1.0 to 100 mg/kg). Alternate therapies include, 3,4-methylenedioxy phenyl acetate (INV 73); 3,4-methylenedioxy-6-nitrophenol (INV 74); 3,4-methylenedioxy-6-nitrophenyl acetate (INV 75); or 3,4-Methylenedioxy phenyl lipoate (INV-7065). Patient notes added benefit in their chest pains with this regimen after taking the medication for two weeks.

[2] = NZW thoracic aorta, end of 12 weeks
[3] = NZW thoracic aorta, end of 12 weeks, % of pre-contraction by PE

Which “joint pains and markers of inflammation” value (Individuals) does the source give for CC(=O)Oc1cc2c(cc1[N+](=O)[O-])OCO2 [INV-75, 3,4-methylenedioxy-6-nitrophenyl acetate] here?
Its value is “marked improvement”.

And the “Acetyl-CoA Oxidase (ACO) gene activation” value (Acetyl-CoA Oxidase (ACO))?
The value was “activated”.

Which results are given for O=C(CCCCC1CCSS1)Oc1ccc2c(c1)OCO2 (centres unmarked) [INV-7065, 3,4-Methylenedioxy phenyl lipoate]?
Ach LogEC50 [1, 2]: −6.67 ± 0.16 M; PE LogEC50 [1, 2]: −6.28 ± 0.08 M; SNP-1 LogEC50 [1, 2]: −7.09 ± 0.16 M; PE Maximum Effect ([1]; NZW thoracic aorta, end of 12 weeks, % of peak response to KCl): 109.1 ± 4.78 %; Ach Maximum Effect [1, 3]: −29.84 ± 2.09 %; Insulin Maximum Effect [1, 3]: −132.5 ± 14.59 %; SNP-1 Maximum Effect [1, 3]: −83.06 ± 4.95%; effect on Insulin EC50 doses ([1]; NZW, in words): no effect; improving response to acetylcholine when compared to control ([1]; NZW, in words): no different than lipoic acid; relaxation to peak doses of Insulin compared to lipoic acid ([1]; NZW, in words): improved; vascular contractility to alpha receptor agonist ([1]; NZW, in words): decreases

O=C(CCCCC1CCSS1)Oc1cc2c(cc1[N+](=O)[O-])OCO2 (centres unmarked) [INV-7465, 3,4-Methylenedioxy 6-nitro phenyl lipoate] was tested. Which chest pains (Patient) did it give?
Its chest pains is “added benefit”.
